How the values were obtained:
[1] = target: T1, GDP-loaded KRAS (1-169) G12C, C51S, C80L, C118S (Homo sapiens, UniProt P01116, C118S/C51S/C80L/G12C); experiment: Mass Spectrometry Reactivity Assay (MSRA): covalent adduct of compound and KRAS G12C, Percent Modification; format: binding; conditions: for MSRA (% modification) 10 μM 0.50 hr / MSRA (% modification) 10 μM 0.25 hr: 10 μM compound; for MSRA (% modification) 5.0 μM 0.017 hr / MSRA (% modification) 5.0 μM 0.25 hr: 5.0 μM compound
T1 construct: GDP-loaded KRAS (1-169) G12C, C51S, C80L, C118S
Method in brief: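 Covalent labelling is measured by intact mass: deconvoluted modified and unmodified peak intensities yield percent modification. Compound, usually 5 μM or 10 μM final, reacts at room temperature with 5 μM GDP-bound KRAS G12C (1-169, C51S/C80L/C118S) in Hepes pH 7.5/NaCl/glycerol, sampled at 1, 15, 30, 60 min.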

KRAS G12C = KRAS G12C (Homo sapiens, UniProt P01116, G12C); experiment: Cell Activity Assay: accumulation of GDP-bound KRAS G12C in MIAPaCa-2 cells (Raf-1 RBD capture, MSD readout); format: cell-based; set-up: endogenous in cells; host or cells: MIAPaCa-2; conditions: 6 hours, assay limit is 30.00
Method in brief: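 IC50 came from a 4-parameter fit of Ras signal normalized between DMSO and full-inhibition controls. Readout: lysate GTP-Ras bound to immobilized Raf-1 RBD, quantified with pan-Ras antibody and MSD electrochemiluminescence. Lysates derived from MIAPaCa-2 cells treated 6 h with serially diluted compound, 0.3% DMSO.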

SMILES	MSRA (% modification) 10 μM 0.50 hr [1]	IC50 (KRAS G12C)	MSRA (% modification) 10 μM 0.25 hr [1]	MSRA (% modification) 5.0 μM 0.017 hr [1]	MSRA (% modification) 5.0 μM 0.25 hr [1]
C=CC(=O)N1CCN(c2ncnc3c(Oc4c(C)ccc5[nH]ncc45)cc(Cl)cc23)CC1 [Example 12C, 1-(4-{6-chloro-8-[(5-methyl-1H-indazol-4-yl)oxy]quinazolin-4-yl}piperazin-1-yl)prop-2-en-1-one]	34%	3.91 µM			
C=CC(=O)N1CCN(c2nc(N3CC[C@@H](N(C)C)C3)nc3c(Oc4c(C)ccc5[nH]ncc45)cccc23)CC1 [Example 09E, 1-(4-{2-[(3R)-3-(dimethylamino)pyrrolidin-1-yl]-8-[(5-methyl-1H-indazol-4-yl)oxy]quinazolin-4-yl}piperazin-1-yl)prop-2-en-1-one]	24%	7.4 µM			
C=CC(=O)N1CCN(c2ncnc3c(Oc4c(C)c(C)cc5[nH]ncc45)nccc23)CC1 [Example 12A, 1-(4-{8-[(5,6-dimethyl-1H-indazol-4-yl)oxy]pyrido[3,4-d]pyrimidin-4-yl}piperazin-1-yl)prop-2-en-1-one]	38%	2.95 µM			
C=CC(=O)N1CCN(c2nc(OC[C@H]3CCCN3C)nc3c(Oc4c(C)ccc5[nH]ncc45)nccc23)CC1 [Example 09B, 1-[4-(8-[(5-methyl-1H-indazol-4-yl)oxy]-2-{[(2R)-1-methylpyrrolidin-2-yl]methoxy}pyrido[3,4-d]pyrimidin-4-yl)piperazin-1-yl]prop-2-en-1-one]		3.1 µM	43%		
C=CC(=O)N1CCN(c2ncnc3c(Oc4c(C)ccc5[nH]ncc45)cccc23)[C@@H](C)C1 [Example 10C, 1-[(3S)-3-methyl-4-{8-[(5-methyl-1H-indazol-4-yl)oxy]quinazolin-4-yl}piperazin-1-yl]prop-2-en-1-one]	27%	5.21 µM			
C=CC(=O)N1CCN(c2nc(OC3CN(C)CC34CC4)nc3c(Oc4c(Cl)c(F)cc5[nH]ncc45)nc(Cl)cc23)CC1 (centres unmarked) [Example 36G, 1-(4-{6-chloro-8-[(5-chloro-6-fluoro-1H-indazol-4-yl)oxy]-2-[(5-methyl-5-azaspiro[2.4]heptan-7-yl)oxy]pyrido[3,4-d]pyrimidin-4-yl}piperazin-1-yl)prop-2-en-1-one]		0.109 µM		35%	
C=CC(=O)N1CCN(c2nc(OC[C@@]3(F)CCCN(C)C3)nc3c(Oc4c(Cl)c(F)cc5[nH]ncc45)nccc23)CC1 [Example 15I, 1-[4-(8-[(5-chloro-6-fluoro-1H-indazol-4-yl)oxy]-2-{[(3R)-3-fluoro-1-methyl-piperidin-3-yl]methoxy}pyrido [3,4-d]pyrimidin-4-yl)piperazin-1-yl]prop-2-en-1-one]		0.126 µM			81%
C=CC(=O)N1CCN(c2ncnc3c(Oc4c(C)ccc5[nH]ncc45)nc(Cl)cc23)CC1 [Example 09A, 1-(4-{6-chloro-8-[(5-methyl-1H-indazol-4-yl)oxy]pyrido[3,4-d]pyrimidin-4-yl}piperazin-1-yl)prop-2-en-1-one]	38%	1.87 µM			
C=CC(=O)N1CCN(c2ncnc3c(Oc4c(C)ccc5[nH]ncc45)cc(C#N)cc23)CC1 [Example 14C]	20%	27.8 µM			
C=CC(=O)N1CCN(c2nc(OC[C@H]3CCOC3)nc3c(Oc4c(Cl)c(F)cc5[nH]ncc45)nccc23)CC1 [Example 04H, 1-(4-{8-[(5-chloro-6-fluoro-1H-indazol-4-yl)oxy]-2-[(3S)-tetrahydrofuran-3-ylmethoxy]pyrido[3,4-d]pyrimidin-4-yl}piperazin-1-yl)prop-2-en-1-one]		0.465 µM	73%		65%
C=CC(=O)N1CCN(c2nc(N3CC(N(C)C)C3)nc3c(Oc4c(Cl)c(F)cc5[nH]ncc45)nccc23)CC1 [Example 02H, 1-(4-{8-[(5-chloro-6-fluoro-1H-indazol-4-yl)oxy]-2-[3-(dimethylamino)azetidin-1-yl]pyrido[3,4-d]pyrimidin-4-yl}piperazin-1-yl)prop-2-en-1-one]		0.505 µM	53%		
C=CC(=O)N1CCN(c2nc(O[C@@H]3CN(C)C[C@H]3OC)nc3c(Oc4c(Cl)c(F)cc5[nH]ncc45)cccc23)CC1 [Example 01L, 1-[4-(8-[(5-chloro-6-fluoro-1H-indazol-4-yl)oxy]-2-{[(3R,4R)-4-methoxy-1-methylpyrrolidin-3-yl]oxy}quinazolin-4-yl)piperazin-1-yl]prop-2-en-1-one]		0.038 µM		51%	
C=CC(=O)N1CCN(c2nc(N3CC4(C3)C(=O)NCN4C)nc3c(Oc4c(C)ccc5[nH]ncc45)cccc23)CC1 [Example 18F, 2-{4-(4-acryloylpiperazin-1-yl)-8-[(5-methyl-1H-indazol-4-yl)oxy]quinazolin-2-yl}-5-methyl-2,5,7-triazaspiro[3.4]octan-8-one]	23%	29.3 µM			
C#CCCN1C[C@@H](OC)[C@H](Oc2nc(N3CCN(C(=O)C=C)CC3)c3ccnc(Oc4c(Cl)c(F)cc5[nH]ncc45)c3n2)C1 [Example 44I, 1-[4-(2-{[(3R,4R)-1-(but-3-yn-1-yl)-4-methoxy-pyrrolidin-3-yl]oxy}-8-[(5-chloro-6-fluoro-1H-indazol-4-yl)oxy]pyrido [3,4-d]pyrimidin-4-yl)piperazin-1-yl]prop-2-en-1-one]		0.032 µM		56%	
C=CC(=O)N1CCN(c2ncnc3c(Oc4c(F)c(C)c(F)c5[nH]ncc45)nccc23)CC1 [Example 16A, 1-(4-{8-[(5,7-difluoro-6-methyl-1H-indazol-4-yl)oxy]pyrido[3,4-d]pyrimidin-4-yl}piperazin-1-yl)prop-2-en-1-one]	7%	29.6 µM			
C#CCN1C[C@@H](OC)[C@H](Oc2nc(N3CCN(C(=O)C=C)CC3)c3cc(Cl)nc(Oc4c(Cl)c(F)cc5[nH]ncc45)c3n2)C1 [Example 40G, 1-[4-(6-chloro-8-[(5-chloro-6-fluoro-1H-indazol-4-yl)oxy]-2-{[(3R,4R)-4-methoxy-1-(prop-2-yn-1-yl)pyrrolidin-3-yl]oxy}pyrido[3,4-d]pyrimidin-4-yl)piperazin-1-yl]prop-2-en-1-one]		0.008 µM		83%	
[2H]C([2H])([2H])N1C[C@@H](OC)[C@H](Oc2nc(N3CCN(C(=O)C=C)CC3)c3ccnc(Oc4c(Cl)c(F)cc5[nH]ncc45)c3n2)C1 [Example 56I, 1-[4-(8-[(5-chloro-6-fluoro-1H-indazol-4-yl)oxy]-2-{[(3R,4R)-4-methoxy-1-(^2H3)methyl-pyrrolidin-3-yl]oxy}pyrido [3,4-d]pyrimidin-4-yl)piperazin-1-yl]prop-2-en-1-one]		0.04 µM		81%	
C=CC(=O)N1CCN(c2nc(OC[C@@H]3CCCN3C)nc3c(Oc4c(C)c(Cl)cc5[nH]ncc45)cccc23)CC1 [Example 22E, 1-[4-(8-[(6-chloro-5-methyl-1H-indazol-4-yl)oxy]-2-{[(2S)-1-methylpyrrolidin-2-yl]methoxy}quinazolin-4-yl)piperazin-1-yl]prop-2-en-1-one]	83%	0.056 µM	81%		83%
[2H]C([2H])([2H])N1C[C@@H](OC)[C@H](Oc2nc(N3CCN(C(=O)C=C)CC3)c3cc(Cl)nc(Oc4c(Cl)c(F)cc5[nH]ncc45)c3n2)C1 [Example 41G, 1-[4-(6-chloro-8-[(5-chloro-6-fluoro-1H-indazol-4-yl)oxy]-2-{[(3R,4R)-4-methoxy-1-(^2H3)methylpyrrolidin-3-yl]oxy}pyrido[3,4-d]pyrimidin-4-yl)piperazin-1-yl]prop-2-en-1-one]		0.007 µM		83%	
C=CC(=O)N1CCN(c2ncnc3c(Oc4c(CC)ccc5[nH]ncc45)nccc23)CC1 [Example 07A, 1-(4-{8-[(5-ethyl-1H-indazol-4-yl)oxy]pyrido[3,4-d]pyrimidin-4-yl}piperazin-1-yl)prop-2-en-1-one]	16%	7.15 µM			
C=CC(=O)N1CCN(c2nc(OCC3CCOC3)nc3c(Oc4c(Cl)c(F)cc5[nH]ncc45)nc(Cl)cc23)CC1 (centres unmarked) [Example 12G, 1-(4-{6-chloro-8-[(5-chloro-6-fluoro-1H-indazol-4-yl)oxy]-2-(tetrahydrofuran-3-ylmethoxy)pyrido[3,4-d]pyrimidin-4-yl}piperazin-1-yl)prop-2-en-1-one]		0.071 µM	75%		
C=CC(=O)N1CCN(c2ncnc3c(Oc4c(Cl)ccc5[nH]ncc45)cccc23)C[C@@H]1C [Example 07C, 1-[(2S)-4-{8-[(5-chloro-1H-indazol-4-yl)oxy]quinazolin-4-yl}-2-methylpiperazin-1-yl]prop-2-en-1-one]	15%	5.67 µM			
